Source: ChEMBL document CHEMBL1153272, “(2-Aryl-5-methylimidazol-4-ylcarbonyl)guanidines and (2-aryl-5-methyloxazol-4-ylcarbonyl)guanidines as NHE-1 inhibitors” (Bioorg Med Chem Lett, 2009)
pIC50: −log10 of the molar value.

Key:
[1] = biological target: Sodium/hydrogen exchanger 1 (Homo sapiens, UniProt P19634); test: Inhibition of human NHE1 expressed in PS120 cells assessed as imposed acidosis; type: cell-based
[2] = system: Heart; test: Cardioprotective activity in Langendorff perfused rat heart assessed as recovery of rate pressure product at 10 uM treated 10 mins before global ischemia challenge for 30 mins followed by 30 mins of reperfusion; type: functional
[3] = system: Heart; test: Cardioprotective activity in Langendorff perfused rat heart assessed as left ventricular end diastolic pressure at 10 uM treated 10 mins before global ischemia challenge for 30 mins followed by 30 mins of reperfusion; type: functional
[4] = system: Rattus norvegicus; test: Cardioprotective activity in Langendorff perfused rat myocardial infarction model assessed as ratio of myocardial infarction size to area at risk at 0.1 mg/kg, iv administered 5 mins before onset ischemia challenge followed by 90 mins reperfusion; type: functional, Myocardium

Sodium/hydrogen exchanger 1, sequence (P19634 whole entry, the tested form may be a part): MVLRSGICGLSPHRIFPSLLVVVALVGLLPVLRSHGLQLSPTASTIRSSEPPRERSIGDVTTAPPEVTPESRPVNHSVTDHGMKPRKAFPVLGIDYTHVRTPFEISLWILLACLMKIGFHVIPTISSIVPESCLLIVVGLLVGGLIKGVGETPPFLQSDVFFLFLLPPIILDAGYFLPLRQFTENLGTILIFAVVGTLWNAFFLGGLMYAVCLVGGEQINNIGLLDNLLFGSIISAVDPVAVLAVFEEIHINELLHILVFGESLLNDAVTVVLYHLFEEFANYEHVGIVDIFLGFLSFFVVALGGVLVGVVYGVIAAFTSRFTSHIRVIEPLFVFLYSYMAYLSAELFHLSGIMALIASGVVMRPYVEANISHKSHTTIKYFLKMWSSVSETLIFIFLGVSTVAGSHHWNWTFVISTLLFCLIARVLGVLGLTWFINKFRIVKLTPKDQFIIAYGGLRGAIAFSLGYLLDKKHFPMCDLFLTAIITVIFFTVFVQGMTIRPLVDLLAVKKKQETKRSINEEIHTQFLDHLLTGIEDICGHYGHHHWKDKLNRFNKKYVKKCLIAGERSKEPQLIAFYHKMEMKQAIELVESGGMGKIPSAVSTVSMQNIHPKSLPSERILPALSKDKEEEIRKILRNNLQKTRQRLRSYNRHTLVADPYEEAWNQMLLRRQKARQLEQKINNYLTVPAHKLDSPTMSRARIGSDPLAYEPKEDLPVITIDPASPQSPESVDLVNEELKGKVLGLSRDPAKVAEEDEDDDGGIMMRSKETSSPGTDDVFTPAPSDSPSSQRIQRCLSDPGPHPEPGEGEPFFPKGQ

Q: With COc1ccc(-c2nc(C(=O)N=C(N)N)c(C)[nH]2)cc1OC as the compound, how does the pIC50 [1] read?
A: 5.68

Q: How did the pIC50 [1] turn out when CS(=O)(=O)O.Cc1ccc(C)c(-c2nc(C(=O)N=C(N)N)c(C)o2)c1 was run?
A: 6.66

Q: And the Activity [2]?
A: 59%

Q: And the Activity [3]?
A: 9%

Q: And the Activity [4]?
A: 47%

Q: How did the pIC50 [1] turn out when CS(=O)(=O)O.Cc1oc(-c2cc(Cl)cc(Cl)c2)nc1C(=O)N=C(N)N was run?
A: 6.05

Q: And the Activity [2]?
A: 26%

Q: What about the Activity [3] of the same compound?
A: 25%

Q: How did the pIC50 [1] turn out when Cc1[nH]c(-c2cccc(Cl)c2)nc1C(=O)N=C(N)N was run?
A: 5.35

Q: What does the source list for CS(=O)(=O)O.CS(=O)(=O)O.Cc1ccc(C)c(-c2nc(C(=O)N=C(N)N)c(C)[nH]2)c1?
A: pIC50 [1]: 5.96; Activity [2]: 33%; Activity [3]: 32%; Activity [4]: 45%

Q: How did the pIC50 [1] turn out when Cc1[nH]c(-c2cccc(F)c2)nc1C(=O)N=C(N)N was run?
A: 5.35

Q: With Cc1oc(-c2ccc(Cl)cc2)nc1C(=O)N=C(N)N as the compound, how does the pIC50 [1] read?
A: < 4.52

Q: With Cc1cccc(-c2nc(C(=O)N=C(N)N)c(C)o2)c1 as the compound, how does the pIC50 [1] read?
A: 5.18

Q: With Cc1cc(C)cc(-c2nc(C(=O)N=C(N)N)c(C)o2)c1 as the compound, how does the pIC50 [1] read?
A: 5.15

Q: With Cc1[nH]c(-c2ccc(Cl)cc2)nc1C(=O)N=C(N)N as the compound, how does the pIC50 [1] read?
A: < 4.52

Q: With Cc1oc(-c2ccccc2)nc1C(=O)N=C(N)N as the compound, how does the pIC50 [1] read?
A: 5.09

Q: How did the pIC50 [1] turn out when Cc1oc(-c2cccc(Cl)c2)nc1C(=O)N=C(N)N was run?
A: 5.77

Q: How did the pIC50 [1] turn out when Cc1ccc(-c2nc(C(=O)N=C(N)N)c(C)[nH]2)cc1 was run?
A: < 4.52

Q: Cc1[nH]c(-c2ccccc2)nc1C(=O)N=C(N)N was tested. Which pIC50 [1] did it give?
A: 4.92

Q: Which results are given for CS(=O)(=O)O.CS(=O)(=O)O.Cc1[nH]c(-c2cc(Cl)ccc2Cl)nc1C(=O)N=C(N)N?
A: pIC50 [1]: 7.00; Activity [2]: 59%; Activity [3]: 25%; Activity [4]: 40%

Q: Cc1cccc(-c2nc(C(=O)N=C(N)N)c(C)[nH]2)c1 was tested. Which pIC50 [1] did it give?
A: 4.92

Q: COc1ccc(-c2nc(C(=O)N=C(N)N)c(C)[nH]2)cc1 was tested. Which pIC50 [1] did it give?
A: < 4.52

Q: With Cc1[nH]c(-c2cccc(F)c2F)nc1C(=O)N=C(N)N as the compound, how does the pIC50 [1] read?
A: 5.18

Q: With COc1ccccc1-c1nc(C(=O)N=C(N)N)c(C)[nH]1 as the compound, how does the pIC50 [1] read?
A: 5.51

Q: What does the source list for CS(=O)(=O)O.Cc1oc(-c2cc(Cl)ccc2Cl)nc1C(=O)N=C(N)N?
A: pIC50 [1]: 7.14; Activity [2]: 19%; Activity [3]: 27%; Activity [4]: 39%

Q: How did the pIC50 [1] turn out when COc1cccc(-c2nc(C(=O)N=C(N)N)c(C)[nH]2)c1 was run?
A: 5.39

Q: COc1cccc(-c2nc(C(=O)N=C(N)N)c(C)[nH]2)c1OC was tested. Which pIC50 [1] did it give?
A: < 4.52

Q: Cc1ccccc1-c1nc(C(=O)N=C(N)N)c(C)[nH]1 was tested. Which pIC50 [1] did it give?
A: 5.62

Q: Cc1oc(-c2cccc(F)c2)nc1C(=O)N=C(N)N was tested. Which pIC50 [1] did it give?
A: 5.38

Q: With Cc1[nH]c(-c2ccccc2F)nc1C(=O)N=C(N)N as the compound, how does the pIC50 [1] read?
A: 5.14

Q: With COc1ccc(Cl)cc1-c1nc(C(=O)N=C(N)N)c(C)[nH]1.CS(=O)(=O)O.CS(=O)(=O)O as the compound, how does the pIC50 [1] read?
A: 6.62

Q: And the Activity [2]?
A: 60%

Q: And the Activity [3]?
A: 28%

Q: And the Activity [4]?
A: 34%

Q: With COc1ccc(F)cc1-c1nc(C(=O)N=C(N)N)c(C)[nH]1.CS(=O)(=O)O.CS(=O)(=O)O as the compound, how does the pIC50 [1] read?
A: 6.10

Q: And the Activity [2]?
A: 27%

Q: What about the Activity [3] of the same compound?
A: 29%

Q: With Cc1[nH]c(-c2cccc(Cl)c2Cl)nc1C(=O)N=C(N)N as the compound, how does the pIC50 [1] read?
A: 6.30

Q: CS(=O)(=O)O.Cc1[nH]c(-c2cc(Cl)cc(Cl)c2)nc1C(=O)N=C(N)N was tested. Which pIC50 [1] did it give?
A: 6.28

Q: What about the Activity [2] of the same compound?
A: 23%

Q: And the Activity [3]?
A: 28%

Q: With Cc1cc(C)cc(-c2nc(C(=O)N=C(N)N)c(C)[nH]2)c1 as the compound, how does the pIC50 [1] read?
A: 5.30

Q: How did the pIC50 [1] turn out when Cc1[nH]c(-c2cc(F)cc(F)c2)nc1C(=O)N=C(N)N was run?
A: 5.57

Q: Which results are given for CS(=O)(=O)O.CS(=O)(=O)O.Cc1[nH]c(-c2ccccc2Cl)nc1C(=O)N=C(N)N?
A: pIC50 [1]: 5.85; Activity [2]: 69%; Activity [3]: 35%; Activity [4]: 50%

Q: How did the pIC50 [1] turn out when Cc1oc(-c2cc(F)ccc2F)nc1C(=O)N=C(N)N was run?
A: 5.55

Q: With Cc1cccc(-c2nc(C(=O)N=C(N)N)c(C)[nH]2)c1C as the compound, how does the pIC50 [1] read?
A: < 4.52

Q: Cc1[nH]c(-c2ccc(F)cc2)nc1C(=O)N=C(N)N was tested. Which pIC50 [1] did it give?
A: < 4.52

Q: How did the pIC50 [1] turn out when Cc1[nH]c(-c2cc(F)ccc2F)nc1C(=O)N=C(N)N was run?
A: 5.52

Q: With Cc1oc(-c2cc(F)cc(F)c2)nc1C(=O)N=C(N)N as the compound, how does the pIC50 [1] read?
A: 5.48

Q: What does the source list for CC(C)c1ccc(C(=O)N=C(N)N)cc1S(C)(=O)=O.CS(=O)(=O)O [CARIPORIDE MESYLATE]?
A: Activity [2]: 48%; Activity [3]: 22%; Activity [4]: 41%
